Assay results from US11352358B2, “FXR agonist” (XUANZHU BIOPHARMACEUTICAL CO., LTD., priority 2017, dated 2022).
Marks after values point to notes of the source that are not given here.

Experiments:
BSEP mRNA in HepG2 cells = experiment: Relative expression of BSEP mRNA in HepG2 cells (qPCR), Experimental Example 1; assay type: cell-based, human; conditions: Table 1, 24 hrs, expression under 3 μM of PX-104 as 100%
Protocol: compounds of the present invention (for their chemical names and preparation methods, see the preparation example of each compound); compound PX-104 and compound 30-70 (for their structures, see the background of the invention, and for their preparation methods, see patent applications WO2011020615A1 and WO2012087519A1).
Cells were digested with pancreatin and collected, and the concentration of the cells was determined; according to the counting result, the cells were resuspended to a density of 7.5×10^5 cells/mL; 2 mL of the cell suspension was inoculated in each well of a 6-well cell culture plate; and the culture plate was placed in an incubator and cultured under the conditions of 37° C. and 5% CO2 for 24 hrs.
The to-be-tested compounds were diluted to 0.3 mM and 3 mM with DMSO; and 5 μL of each stock solution diluted in the previous step was added to 5 mL of medium individually. The concentrations of the obtained working solutions were 0.3 μM and 3 μM respectively. In the control group, medium was prepared by using equivoluminal DMSO instead of the stock solutions; the cell culture plate was taken out from the incubator; the medium was removed from the cell culture plate, and the working solutions and the control medium were added correspondingly; and the culture plate was then put back into the incubator and cultured under the conditions of 37° C. and 5% CO2 for 24 hrs.
after treatment for 24 hrs, the cell culture plate was taken out, and the medium was removed from the plate; the cells were rinsed three times with pre-cooled (4° C.) PBS; and 200 μL of pancreatin (preheated to 37° C.) was added to each well, and the plate was then gently shaken such that the pancreatin could evenly cover the plate bottom. The culture plate was then placed back into the incubator and incubated until the cells were separated from the plate bottom. 1 mL of medium was added to terminate digestion. The solution was gently pipetted and blown for several times with a pipettor, all the substances in each well were pipetted into a 1.5 mL Rnase-free centrifuge tube and centrifuged at 200×g for 5 mins; supernatants were removed to collect cell samples.
Cell lysis: Fresh RNA lysis buffer was prepared (wherein 10 μL of 2-mercaptoethanol was added to 1 mL of lysis buffer); 600 μL of lysis buffer was added to each cell sample; the cells were lysed completely by 1 to 2 mins of vigorous vortexing; the cell lysates were centrifuged at 12,000×g for 5 mins; and the supernatants were transferred to 1.5 mL Rnase-free centrifuge tubes.
Extraction and purification of RNA: An equal amount of 70% ethanol was added to each cell lysate; the centrifuge tubes were then shaken vigorously, and the buffer was mixed sufficiently, so that the particulate precipitates that might be formed after the addition of ethanol were dispersed as even as possible; and adsorption columns were put into collecting tubes, and the mixtures were transferred to the adsorption columns. 700 μL was transferred at most each time; and the solutions were centrifuged at 12,000×g under room temperature for 15 secs. The solutions in the collecting tubes were discarded, and the adsorption columns were put into the collecting tubes once again; and all the remaining mixtures were then transferred into the adsorption columns. 700 μL of eluent I was added to the adsorption column; and the solutions were centrifuged at 12,000×g under room temperature for 15 secs. The adsorption columns were put into new collecting tubes; 500 μL of eluent II was added to the adsorption column; and the solutions were centrifuged at 12,000×g under room temperature for 15 secs. […]

[1] = test system: high fat-induced NAFLD/NASH mice; experiment: High fat-induced NAFLD/NASH mice (Experimental Example 5); assay type: in vivo, C57BL/6J male mice
From the text: Build of NAFLD/NASH (non-alcoholic fatty liver disease/nonalcoholic steatohepatitis) mouse models: six-week-old C57BL/6J male mice were fed with high-fat feed, and were weighed each week to record the body weights of the mice; and after high-fat feeding for 8 weeks, the mice were weighed to determine whether the modeling is successful.
According to the body weight values (40 g was generally considered as a screening critical point), the successfully-modeled mice were divided into a blank control group, a model control group and the compound 2-1 (1 mg/kg) group, wherein the average body weights of all groups were consistent, without any significant difference. The mice were administered once every day (QD) (8 # intragastric syringe) for 3 weeks.
24 hrs after the last administration, blood was sampled from the inner canthus; the sampled blood stood at room temperature for 1 to 2 hrs, and was centrifuged at 4,000 rpm for 15 mins, and the serum was collected; the mice were euthanized thereafter, and a large liver lobe and a small liver lobe were cut off and put into 10% neutral formalin, and the remainings were stored in a refrigerator at −80° C. For the detailed administration method, administration dosage and administration route, see the table below.
Route, dosage and regimen of administration in experiment for influence of compounds of the present invention on high fat-induced NAFLD/NASH mice
2.1 Experimental Observation Index • 1) Body weight: Weighing was performed once every week from the beginning of modeling. Weighing was performed once every week after administration. • 2) Analysis of morphological and pathological changes of livers: Liver tissues were separated, collected and photographed. The livers were weighed, and ratios of liver weight/body weight were calculated. The tissue was sliced and stained by H&E (NAFLD score, NAS). • 3) Assay of biochemical indexes of livers: TG in the livers was extracted according to the manual of a tissue cell triglyceride assay kit (purchased from Applygen Technologies Inc. E1013), and assayed. • 4) Assay of biochemical indexes of serums: LDL in serums was assayed with a full-automatic biochemical analyzer (Hitachi 7180, model: X594).
Data were represented by mean±S.E.M., and one-way analysis of variance (ANOVA) followed LSD or independent-sample T test were performed on the statistical data with statistical software SPSS 16.0. Statistical differences were tested, and p<0.05 was defined as a significant difference.

SMILES: O=C(O)c1ccc2nc(N3C[C@@H]4C[C@H]3C[C@H]4OCc3c(-c4c(Cl)cccc4Cl)noc3C3CC3)sc2c1 [Compound 2-1, 2-((1S, 4S, 5R)-5-((5-cyclopropyl-3-(2,6-dichlorophenyl)isoxazol-4-yl)methoxy)-2-azabicyclo[2.2.1]heptan-2-yl)benzo[d]thiazole-6-carboxylic acid]
- relative expression of BSEP mRNA in HepG2 cells (BSEP mRNA in HepG2 cells; 0.3 μM): 166%
- relative expression of BSEP mRNA in HepG2 cells (BSEP mRNA in HepG2 cells; 3 μM): 185%
- Liver Weight/Body Weight ([1]; 1 mg/kg p.o. QD for 3 weeks, increased or decreased ratio of the experimental group to the model group): −9%*
- NAFLD Activity Score ([1]; H&E liver slices, 1 mg/kg p.o. QD for 3 weeks, model group 3, p<0.001): 1
- effect on the NAFLD symptom of the mice ([1]; at the administration dosage (1 mg/kg)): good improving effect
- TG ([1]; liver TG, 1 mg/kg p.o. QD for 3 weeks, increased or decreased ratio of the experimental group to the model group): −53%*
- LDL ([1]; serum, 1 mg/kg p.o. QD for 3 weeks, model group 0.31, p<0.01): 0.21
